# In article PMC5447021, “TNF Lectin-Like Domain Restores Epithelial Sodium Channel Function in Frameshift Mutants Associated with Pseudohypoaldosteronism Type 1B” (Frontiers in Immunology, 2017):
# What was measured:
# [1] = biological target: T1, αβγ-hENaC (Homo sapiens, UniProt P37088+P51168+P51170); assay: Whole-cell patch clamp, WT αβγ-hENaC; assay type: cell-based; settings: exposure time, WT αβγ-ENaC (Figure 1)
# T1 construct: expressed in transfected cells; host or cells: HEK-293
# T1 sequence (P37088 1-669): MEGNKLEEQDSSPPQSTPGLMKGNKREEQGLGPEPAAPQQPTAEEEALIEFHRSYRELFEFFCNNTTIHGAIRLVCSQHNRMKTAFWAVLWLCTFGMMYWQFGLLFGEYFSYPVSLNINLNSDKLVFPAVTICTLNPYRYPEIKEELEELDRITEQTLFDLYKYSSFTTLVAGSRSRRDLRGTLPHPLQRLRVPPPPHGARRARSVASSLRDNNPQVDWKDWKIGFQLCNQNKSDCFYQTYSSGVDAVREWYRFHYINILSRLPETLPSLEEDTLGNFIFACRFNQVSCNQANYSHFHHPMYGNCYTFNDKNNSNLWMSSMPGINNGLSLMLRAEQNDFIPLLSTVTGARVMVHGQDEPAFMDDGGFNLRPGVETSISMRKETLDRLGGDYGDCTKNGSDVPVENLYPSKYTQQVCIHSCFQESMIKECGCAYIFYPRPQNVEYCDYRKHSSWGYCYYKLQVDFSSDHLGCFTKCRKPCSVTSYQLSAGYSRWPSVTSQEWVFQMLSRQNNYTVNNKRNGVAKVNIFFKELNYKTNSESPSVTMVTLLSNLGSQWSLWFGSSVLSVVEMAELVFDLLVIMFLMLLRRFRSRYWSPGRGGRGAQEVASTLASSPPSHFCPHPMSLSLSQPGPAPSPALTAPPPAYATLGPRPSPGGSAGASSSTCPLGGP
# T1 sequence (P51168 1-640 partner): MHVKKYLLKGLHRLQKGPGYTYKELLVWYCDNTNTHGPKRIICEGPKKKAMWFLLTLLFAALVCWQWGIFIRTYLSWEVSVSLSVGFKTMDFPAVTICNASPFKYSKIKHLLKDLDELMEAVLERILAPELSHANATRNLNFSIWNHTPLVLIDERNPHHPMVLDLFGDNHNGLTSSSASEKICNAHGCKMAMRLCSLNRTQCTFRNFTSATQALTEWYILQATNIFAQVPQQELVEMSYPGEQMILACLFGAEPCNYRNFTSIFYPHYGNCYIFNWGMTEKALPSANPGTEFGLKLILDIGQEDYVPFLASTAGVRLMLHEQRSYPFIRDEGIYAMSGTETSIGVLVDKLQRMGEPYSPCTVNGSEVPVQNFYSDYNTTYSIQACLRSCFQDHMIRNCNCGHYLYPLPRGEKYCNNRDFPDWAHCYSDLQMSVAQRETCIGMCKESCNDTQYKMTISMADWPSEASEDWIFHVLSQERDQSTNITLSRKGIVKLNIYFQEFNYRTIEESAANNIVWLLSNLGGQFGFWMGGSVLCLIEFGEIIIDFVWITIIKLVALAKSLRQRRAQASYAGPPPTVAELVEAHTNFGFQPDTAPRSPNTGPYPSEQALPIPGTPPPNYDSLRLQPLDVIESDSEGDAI
# T1 sequence (P51170 1-649 partner): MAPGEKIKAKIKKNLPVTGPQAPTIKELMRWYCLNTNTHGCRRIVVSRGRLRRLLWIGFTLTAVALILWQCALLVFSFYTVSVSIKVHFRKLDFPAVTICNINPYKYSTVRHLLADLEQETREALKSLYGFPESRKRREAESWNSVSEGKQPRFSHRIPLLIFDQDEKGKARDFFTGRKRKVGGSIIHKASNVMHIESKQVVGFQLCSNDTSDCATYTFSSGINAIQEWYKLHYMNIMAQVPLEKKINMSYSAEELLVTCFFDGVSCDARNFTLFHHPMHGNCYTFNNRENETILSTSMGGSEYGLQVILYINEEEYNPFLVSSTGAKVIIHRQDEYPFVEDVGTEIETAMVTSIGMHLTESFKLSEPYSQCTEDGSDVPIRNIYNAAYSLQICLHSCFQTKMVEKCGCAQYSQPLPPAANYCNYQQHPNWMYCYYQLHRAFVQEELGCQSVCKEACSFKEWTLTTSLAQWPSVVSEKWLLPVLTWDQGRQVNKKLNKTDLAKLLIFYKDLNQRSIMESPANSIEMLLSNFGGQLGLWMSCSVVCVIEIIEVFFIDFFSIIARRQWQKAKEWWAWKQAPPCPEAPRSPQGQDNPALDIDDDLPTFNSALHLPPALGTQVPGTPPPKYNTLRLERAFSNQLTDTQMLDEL
# Description: Point mutations of α-, β-, γ- and δ-hENaC and PHA1B frameshift mutations of α-hENaC were prepared with the QuikChange Lightning Site-Directed Mutagenesis Kit (Agilent Technologies, CA, USA). Mutagenic primers were designed individually with the Primer Design Program provided on the producer’s website or for the frameshift mutations the same base changes as reported in patients (see Table 2) were performed. Primers were ordered from Sigma-Aldrich, Vienna, Austria.
# HEK-293 cells were transfected 1 day after cell seeding using X-tremeGENE HP DNA transfection reagent (Roche Diagnostics, Mannheim, Germany) according to the manufacturer’s protocol. A set of WT or mutant αβγ- or δβγ-hENaC, or α-, β-, γ-, or δ-hENaC alone was used, and the ratio of DNA to transfection reagent was 1:3. The expression was highest 48–72 h after transfection.
# Electrophysiological experiments were performed as described in detail by Shabbir et al. ([16]). […] Currents were recorded with the patch clamp method in the whole-cell mode. The chamber contained 1 ml of the bath solution of the following composition (in mM): 145 NaCl, 2.7 KCl, 1.8 CaCl2, 2 MgCl2, 5.5 glucose, and 10 HEPES, adjusted to pH 7.4 with 1 M NaOH solution. Micropipettes were pulled from thin-walled borosilicate glass capillaries (Harvard Apparatus, Holliston, MA, USA) with a DMZ Zeitz Puller to obtain electrode resistances ranging from 2 to 5 MΩ. The pipette solution contained (in millimolars): 135 potassium methane sulfonate, 10 KCl, 6 NaCl, 1 Mg2ATP, 2 Na3ATP, 10 HEPES, and 0.5 EGTA, adjusted to pH 7.2 with 1 M KOH solution. Chemicals for pipette and bathing solutions were supplied by Sigma-Aldrich (Vienna, Austria). Electrophysiological measurements were carried out with an Axopatch 200B patch clamp amplifier (Axon Instruments, CA, USA). Capacity transients were canceled, and series resistance was compensated. Whole-cell currents were filtered at 5 kHz and sampled at 10 kHz. Data acquisition and storage were processed directly to a PC equipped with pCLAMP 10.2 software (Axon Instruments, CA, USA). […]
# [2] = test system: flooded rat lung; settings: in situ and in vivo; cited from earlier work
# Text: (§1) Like TNF, TIP peptide can influence regulation of alveolar fluid balance.
# [3] = test system: pulmonary edema; settings: acute hypobaric hypoxia and exercise; cited from earlier work
# Text: as §1
structure (smiles),measurement,setting,value
"C[C@@H]1NC(=O)CNC(=O)[C@H](CCC(=O)O)NC(=O)[C@@H]2CCCN2C(=O)[C@H]([C@@H](C)O)NC(=O)[C@H](CCC(=O)O)NC(=O)[C@H](CCCNC(=N)N)NC(=O)[C@H](CCC(N)=O)NC(=O)CNC(=O)[C@@H](N)CSSC[C@@H](C(=O)O)NC(=O)[C@H](Cc2ccc(O)cc2)NC(=O)[C@H](Cc2c[nH]c3ccccc23)NC(=O)[C@@H]2CCCN2C(=O)[C@H](CCCCN)NC(=O)[C@H](C)NC(=O)[C@H](CCC(=O)O)NC1=O [solnatide, L-cysteine, L-cysteinylglycyl-L-glutaminyl-L-arginyl-L-α-glutamyl-L-threonyl-L-prolyl-L-α-glutamylglycyl-L-alanyl-L-α-glutamyl-L-alanyl-L-lysyl-L-prolyl-L-tryptophyl-L-tyrosyl-, cyclic (1→17)-disulfide]",Time to maximal stimulatory effect,[1],~ 2 min
same,Alveolar fluid reabsorption,[2],activate fluid reabsorption in in situ and in vivo flooded rat lung models
same,Therapeutic activity,[3],profound therapeutic activity
